Data set [1] relates to Staphylococcus aureus. Nature of the data set: Antibacterial activity against methicillin-resistant Staphylococcus aureus NRS 10119 assessed as bacterial growth inhibition incubated for 16 to 18 hrs by broth microdilution method. Type of data set: functional. Conditions: time 16-18 hrs.
Data set [2] concerns Staphylococcus aureus. Description: Synergistic antibacterial activity against multidrug-resistant methicillin resistant Staphylococcus aureus NRS 10119 assessed as reduction in bacterial load at 1X MIC preincubated for 24 hrs in presence of gentamycin followed by subculturing on TSA plate for 18 to 20 hrs by time-kill assay. Type of data set: functional. The note with it: time 42-44 hrs.

Data set [3] has as its system Staphylococcus aureus. Description: Antibacterial activity against Staphylococcus aureus ATCC 29213 assessed as time for increase by 1 log10CFU at 1XMIC incubated for 1 hr followed by drug wash-out and measured every single 1 hr. Type of data set: functional.
Data set [4] deals with Staphylococcus aureus. Description: Antibacterial activity against Staphylococcus aureus ATCC 29213 assessed as time for post-antibiotic effect at 10XMIC incubated for 1 hr followed by drug wash-out and measured every single 1 hr. It is filed as functional.
Data set [5] relates to Staphylococcus aureus. Description: Antibacterial activity against Staphylococcus aureus ATCC 29213 assessed as reduction in bacterial growth at sub-MIC incubated for more than 40 days. It is filed as functional, organism-based. Conditions: time day >40.
In data set [6] the test system is Staphylococcus aureus. Description: Antibacterial activity against methicillin-resistant Staphylococcus aureus NRS 10193 assessed as bacterial growth inhibition incubated for 16 to 18 hrs by broth microdilution method. It is filed as functional. The note with it: time 16-18 hrs.
Data set [7] concerns Staphylococcus aureus. Nature of the data set: Synergistic antibacterial activity against Staphylococcus aureus ATCC 29213 assessed as fractional inhibitory concentration in presence of gentamycin incubated for 24 hrs by checkerboard assay. Type of data set: functional.
The test system of data set [8] is Enterococcus. Nature of the data set: Antibacterial activity against vancomycin-resistant Enterococcus NR 31912 assessed as bacterial growth inhibition incubated for 16 to 18 hrs by broth microdilution method. Conditions: time 16-18 hrs. It is filed as functional.
Data set [9] deals with Staphylococcus aureus. Nature of the data set: microbe, parasite or virus in culture. Conditions: ATCC 29213.
Description: Antibacterial activity against Staphylococcus aureus ATCC 29213 assessed as bacterial growth inhibition incubated for 16 to 18 hrs by broth microdilution method
Data set [10] has as its system Staphylococcus aureus. Description: Antibacterial activity against Staphylococcus aureus ATCC 29213 assessed as fractional inhibitory concentration in presence of daptomycin incubated for 24 hrs by checkerboard assay. Type of data set: functional.
The subject of data set [11] is Staphylococcus aureus. Description: Antibacterial activity against Staphylococcus aureus ATCC 29213 assessed as bacterial growth inhibition in presence of vancomycin incubated for 24 hrs by checkerboard assay. Type of data set: functional.
Data set [12] deals with Enterococcus. Nature of the data set: Antibacterial activity against vancomycin-susceptible Enterococcus NR 31888 assessed as bacterial growth inhibition incubated for 16 to 18 hrs by broth microdilution method. The note with it: time 16-18 hrs. Type of data set: functional.
The test system of data set [13] is Staphylococcus aureus. Nature of the data set: Antibacterial activity against Staphylococcus aureus ATCC 29213 assessed as time for increase by 1 log10CFU at 10XMIC incubated for 1 hr followed by drug wash-out and measured every single 1 hr. It is filed as functional.
The subject of data set [14] is Staphylococcus aureus. Nature of the data set: Antibacterial activity against Staphylococcus aureus ATCC 29213 assessed as bacterial growth inhibition in presence of minocycline incubated for 24 hrs by checkerboard assay. Type of data set: functional.
Data set [15] has as its system Staphylococcus aureus. Description: Antibacterial activity against Staphylococcus aureus ATCC 29213 assessed as bacterial growth inhibition in presence of levofloxacin incubated for 24 hrs by checkerboard assay. Type of data set: functional.
For data set [16], the system named is Staphylococcus aureus. Nature of the data set: Antibacterial activity against Staphylococcus aureus ATCC 29213 assessed as fractional inhibitory concentration in presence of rifampicin incubated for 24 hrs by checkerboard assay. It is filed as functional.
The nature of data set [17]: Selectivity index, ratio of CC50 for cytotoxicity against African green monkey Vero cells to MIC for antibacterial activity against Staphylococcus aureus ATCC 29213. Type of data set: toxicity, cell-based. Conditions: read-out: Selectivity Index.
The test system of data set [18] is Enterococcus. Description: Antibacterial activity against Enterococcus NR 31884 assessed as bacterial growth inhibition incubated for 16 to 18 hrs by broth microdilution method. It is filed as functional. Conditions: time 16-18 hrs.
In data set [19] the test system is Staphylococcus aureus. Description: Bactericidal activity against Staphylococcus aureus ATCC 29213 assessed as reduction in bacterial load at 10X MIC preincubated for 6 hrs followed by subculturing on TSA plate for 18 to 20 hrs by time-kill assay. It is filed as functional. Further details: scale not given: the % may be the effect or the level left. The note with it: time 24-26 hrs.

Data set [20] has as its system Staphylococcus aureus. Nature of the data set: Antibacterial activity against methicillin-resistant Staphylococcus aureus NRS 10194 assessed as bacterial growth inhibition incubated for 16 to 18 hrs by broth microdilution method. It is filed as functional. Conditions: time 16-18 hrs.
Data set [21] concerns Staphylococcus aureus. Nature of the data set: Antibacterial activity against methicillin-resistant Staphylococcus aureus NRS 10192 assessed as bacterial growth inhibition incubated for 16 to 18 hrs by broth microdilution method. Type of data set: functional. Conditions: time 16-18 hrs.
The next data set concerns Escherichia coli. Nature of the data set: Antibacterial activity against Escherichia coli ATCC 25922 assessed as bacterial growth inhibition incubated for 16 to 18 hrs by broth microdilution method. Type of data set: functional. The note with it: time 16-18 hrs.

Values after ≈ are worked out from the molar mass of the structure shown. Active and inactive are the calls of the source. The calls are words filed in the database; no cut-off is given here. Where only a bound is given, the exact number is not on record here.

Take `CC(C)=CCc1c(O)cc2oc(-c3ccc(O)cc3O)c(CC=C(C)C)c(=O)c2c1O` [CUDRAFLAVONE C]: the MIC with Staphylococcus aureus [1] was 4 µg/mL (≈ 9.47 µM); in the data set with Staphylococcus aureus [6], 4 µg/mL (≈ 9.47 µM); in the data set with Enterococcus [8], 4 µg/mL (≈ 9.47 µM); in the data set with Staphylococcus aureus [9], 2 µg/mL (≈ 4.73 µM); in the data set on Staphylococcus aureus [11], 2 µg/mL; in the data set on Enterococcus [12], 4 µg/mL (≈ 9.47 µM). Also, the MIC in the data set with Staphylococcus aureus [14] was 2 µg/mL; in the data set with Staphylococcus aureus [15] it was 2 µg/mL; in the data set on Enterococcus [18] it was 4 µg/mL (≈ 9.47 µM); in the data set with Staphylococcus aureus [20] it was 4 µg/mL (≈ 9.47 µM); with Staphylococcus aureus [21], 4 µg/mL (≈ 9.47 µM); in the data set with Escherichia coli it was above 64 µg/mL. Also, the figures for the Activity in the data set with Staphylococcus aureus [2] and in the data set with Staphylococcus aureus [19] were 6 log10CFU/ml and 100%, respectively. Moreover, the figures for the Time in the data set on Staphylococcus aureus [3], with Staphylococcus aureus [4] and with Staphylococcus aureus [13] were 4 h, above 22 h and above 24 h, respectively. For the same compound, in the data set on Staphylococcus aureus [5], the result was Active. The figures for the FIC in the data set with Staphylococcus aureus [7], in the data set with Staphylococcus aureus [10] and in the data set on Staphylococcus aureus [16] were 0.135, 1.5 and 1.5, respectively. The selectivity ratio in data set [17] amounted to 25.

Values taken from ChEMBL document CHEMBL4840338, “Cudraflavone C from Artocarpus hirsutus as a Promising Inhibitor of Pathogenic, Multidrug-Resistant S. aureus, Persisters, and Biofilms: A New Insight into a Rational Explanation of Traditional Wisdom” (J Nat Prod, 2021).
